For 21 molecules, melting point and IC50 results are on record in patent publication US20200392150A1, “Diaryl-B-Lactam Compound and Preparation Method and Pharmaceutical Use Thereof” (Fudan University, priority 2016, published 2020).

The test system of data set [1] is A2780. The data set can be described thus: In vitro cell growth inhibition assay (MTT). Format: cell-based, human. The conditions noted are these: read-out: IC50 A2780. The method, boiled down:
(§1)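 Following overnight adherence of 5000 cells per well, compounds or 0.2% DMSO were applied for 48 h. Medium was then swapped for 0.5 mg/mL MTT medium (4 h, 37° C), crystals dissolved in DMSO, and plates read at 540 nm.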

The subject of data set [2] is Hela. The data set can be described thus: In vitro cell growth inhibition assay (MTT). Format: cell-based, human. The conditions noted are these: 48 h, read-out: IC50 Hela. Summed up: as §1
In data set [3] the test system is MDA-MB-231. The data set can be described thus: In vitro cell growth inhibition assay (MTT). Conditions: read-out: IC50 MDA-MB-231. The class given is cell-based, human. Summed up: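 5000 cells/well, overnight attachment; compounds 48 h (vehicle 0.2% DMSO); MTT 0.5 mg/mL, 4 h, 37° C; formazan in DMSO; A540. IC50 from growth inhibition rates.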
Data set [4] concerns SKOV3. The data set can be described thus: In vitro cell growth inhibition assay (MTT). Format: cell-based, human. The conditions noted are these: read-out: IC50 SKOV3. Summed up:
as §1

Where [5] appears, read: A2780 human ovarian cancer cell line, 48 h, MTT.
Setting [6] is: Hela human cervical cancer cell line, MTT.
[7] abbreviates: MDA-MB-231 human breast cancer cell line, 48 h, MTT.
Where [8] appears, read: SK-OV-3, SKOV-3 human ovarian cancer cell line, 48 h, MTT.

Structures can show the parent of a compound that is named as a salt. Where two headings read alike, the source gives them in different places. Some results are limits rather than exact numbers.

What is called melting point is the temperature of the solid-liquid transition. The IC50 is the concentration that inhibits the measured activity by half.

For `C=C1C(=O)N(c2cc(OC)c(OC)c(OC)c2)[C@H]1c1ccc(OC)c(OS(=O)(=O)c2ccc(C)cc2)c1` (as salt: benzenesulfonate) [Compound 27, (S)-2-methoxy-5-(3-methylene-4-oxo-1-(3,4,5-trimethoxyphenyl)azetidin-2-yl)phenyl 4-methylbenzenesulfonate], the melting point is 162 to 163 °C.

`C=C1C(=O)N(c2cc(OC)c(OC)c(OC)c2)[C@H]1c1ccc(OC)c(OS(=O)(=O)c2ccc(NC(C)=O)cc2)c1` (as salt: benzenesulfonate) [Compound 30, (S)-2-methoxy-5-(3-methylene-4-oxo-1-(3,4,5-trimethoxyphenyl)azetidin-2-yl)phenyl 4-acetamidobenzenesulfonate] yielded a melting point of 87 to 88 °C.

The molecule `C=C1C(=O)N(c2cc(OC)c(OC)c(OC)c2)[C@H]1c1ccc(OC)c(OS(=O)(=O)c2ccc(OC)c(OC)c2)c1` (as salt: benzenesulfonate) [Compound 33, (S)-2-methoxy-5-(3-methylene-4-oxo-1-(3,4,5-trimethoxyphenyl)azetidin-2-yl)phenyl 3,4-dimethoxybenzenesulfonate] had a melting point of 70 to 71 °C.

`C=C1C(=O)N(c2cc(OC)c(OC)c(OC)c2)[C@H]1c1ccc(OC)c(OS(=O)(=O)Cc2ccccc2)c1` (as salt: methanesulfonate) [Compound 32, (S)-2-methoxy-5-(3-methylene-4-oxo-1-(3,4,5-trimethoxyphenyl)azetidin-2-yl)phenyl phenylmethanesulfonate]: the melting point was 58 to 59 °C.

The molecule `C=C1C(=O)N(c2cc(OC)c(OC)c(OC)c2)[C@H]1c1ccc(OC)c(OC)c1` [Compound 2, (S)-4-(3,4-dimethoxyphenyl)-3-methylene-1-(3,4,5-trimethoxyphenyl)azetidin-2-one] showed a melting point of 138 to 139 °C. Besides, the IC50 in data set [1] (setting [5]) was 854 nM. For the same molecule, in data set [2] (setting [6]), the IC50 was 3160 nM. In addition, the IC50 in data set [3] (setting [7]) stood at 1020 nM. Moreover, the IC50 in data set [4] (setting [8]) worked out at 2260 nM.

Molecule `C=C1C(=O)N(c2cc(OC)c(OC)c(OC)c2)[C@H]1c1ccc(OC)c(OCC)c1` [Compound 3, (S)-4-(3-ethoxy-4-methoxyphenyl)-3-methylene-1-(3,4,5-trimethoxyphenyl)azetidin-2-one] yielded a melting point of 92 to 93 °C. Further, the IC50 in data set [1] (setting [5]) worked out at 854 nM. Further, in data set [2] (setting [6]), the IC50 is 2030 nM. Moreover, in data set [3] (setting [7]), the IC50 stood at 958 nM. Besides, in data set [4] (setting [8]), the IC50 is 1140 nM.

Turning to `C=C1C(=O)N(c2cc(OC)c(OC)c(OC)c2)[C@H]1c1ccc(OC)c(OCCC)c1` [Compound 4, (S)-4-(4-methoxy-3-propoxyphenyl)-3-methylene-1-(3,4,5-trimethoxyphenyl)azetidin-2-one], the melting point lay in the range of 90 to 91 °C. Moreover, in data set [1] (setting [5]), the IC50 amounted to 3420 nM. Besides, in data set [2] (setting [6]), the 50% inhibitory concentration (IC50) was 6890 nM. Also, the IC50 in data set [3] (setting [7]) came out at 5620 nM. The IC50 in data set [4] (setting [8]) is 5260 nM.

`C=C1C(=O)N(c2cc(OC)c(OC)c(OC)c2)[C@H]1c1ccc(OC)c(OC(C)C)c1` [Compound 5, (S)-4-(3-isopropoxy-4-methoxyphenyl)-3-methylene-1-(3,4,5-trimethoxyphenyl)azetidin-2-one] displayed a melting point of 146 to 147 °C. In addition, the IC50 in data set [1] (setting [5]) worked out at 11300 nM. In data set [2] (setting [6]), the half-inhibitory concentration (IC50) is over 20000 nM. In data set [3] (setting [7]), the IC50 was 15900 nM. For the same molecule, in data set [4] (setting [8]), the IC50 was 18000 nM.

Take `C=CCOc1cc([C@H]2C(=C)C(=O)N2c2cc(OC)c(OC)c(OC)c2)ccc1OC` [Compound 6, (S)-4-(3-(allyloxy)-4-methoxyphenyl)-3-methylene-1-(3,4,5-trimethoxyphenyl)azetidin-2-one]: the melting point was in the range of 92 to 93 °C. Also, in data set [1] (setting [5]), the concentration for half-maximal inhibition (IC50) is 1250 nM. Besides, the IC50 in data set [2] (setting [6]) amounted to 1150 nM. The IC50 in data set [3] (setting [7]) was found to be 883 nM. Moreover, in data set [4] (setting [8]), the 50% inhibitory concentration (IC50) was 1480 nM.

On to `C#CCOc1cc([C@H]2C(=C)C(=O)N2c2cc(OC)c(OC)c(OC)c2)ccc1OC` [Compound 7, (S)-4-(4-methoxy-3-(prop-2-yn-1-yloxy)phenyl)-3-methylene-1-(3,4,5-trimethoxyphenyl)azetidin-2-one], for which the melting point was 106 to 107 °C. In addition, the IC50 in data set [1] (setting [5]) stood at 429 nM. Moreover, in data set [2] (setting [6]), the IC50 amounted to 1050 nM. In addition, the half-maximal inhibitory concentration (IC50) in data set [3] (setting [7]) came to 1200 nM. For the same molecule, the 50% inhibitory concentration (IC50) in data set [4] (setting [8]) worked out at 841 nM.

For `C=C1C(=O)N(c2cc(OC)c(OC)c(OC)c2)[C@H]1c1ccc(OC)c(OCCCl)c1` [Compound 10, (S)-4-(3-(2-chloroethoxy)-4-methoxyphenyl)-3-methylene-1-(3,4,5-trimethoxyphenyl)azetidin-2-one], the melting point was 91 to 92 °C. Further, in data set [1] (setting [5]), the IC50 worked out at 409 nM. Moreover, the half-inhibitory concentration (IC50) in data set [2] (setting [6]) came to 887 nM. In addition, the IC50 in data set [3] (setting [7]) came to 608 nM. Further, the IC50 in data set [4] (setting [8]) was 864 nM.

On to `C=C1C(=O)N(c2cc(OC)c(OC)c(OC)c2)[C@H]1c1ccc(OC)c(OCCCCl)c1` [Compound 11, (S)-4-(3-(3-chloropropoxy)-4-methoxyphenyl)-3-methylene-1-(3,4,5-trimethoxyphenyl)azetidin-2-one], for which the melting point lay within 72 to 73 °C. The IC50 in data set [1] (setting [5]) came out at 2180 nM. Moreover, the IC50 in data set [2] (setting [6]) was found to be 6040 nM. For the same molecule, the IC50 in data set [3] (setting [7]) came to 4150 nM. For the same molecule, in data set [4] (setting [8]), the IC50 worked out at 4070 nM.

`C=C1C(=O)N(c2cc(OC)c(OC)c(OC)c2)[C@H]1c1ccc(OC)c(OCCN2CCOCC2)c1` [Compound 15, (S)-4-(4-methoxy-3-(2-morpholinoethoxy)phenyl)-3-methylene-1-(3,4,5-trimethoxyphenyl)azetidin-2-one]: the melting point was in the range of 86 to 87 °C. In data set [1] (setting [5]), the IC50 is over 10000 nM. The 50% inhibitory concentration (IC50) in data set [2] (setting [6]) was over 10000 nM. Further, the IC50 in data set [3] (setting [7]) was over 10000 nM. In data set [4] (setting [8]), the IC50 is over 10000 nM.

The molecule `C=C1C(=O)N(c2cc(OC)c(OC)c(OC)c2)[C@H]1c1ccc(OC)c(OC(=O)c2ccccc2)c1` [Compound 18, (S)-2-methoxy-5-(3-methylene-4-oxo-1-(3,4,5-trimethoxyphenyl)azetidin-2-yl)phenyl benzoate] displayed a melting point of 151 to 152 °C. In addition, in data set [1] (setting [5]), the half-maximal inhibitory concentration (IC50) is 287 nM. In addition, the 50% inhibitory concentration (IC50) in data set [2] (setting [6]) came to 386 nM. Further, in data set [3] (setting [7]), the IC50 is 637 nM. Moreover, the IC50 in data set [4] (setting [8]) amounted to 484 nM.

Molecule `C=C1C(=O)N(c2cc(OC)c(OC)c(OC)c2)[C@H]1c1ccc(OC)c(OC(=O)c2ccc([N+](=O)[O-])cc2)c1` [Compound 19, (S)-2-methoxy-5-(3-methylene-4-oxo-1-(3,4,5-trimethoxyphenyl)azetidin-2-yl)phenyl 4-nitrobenzoate] came in with a melting point of 88 to 89 °C. Also, the IC50 in data set [1] (setting [5]) amounted to 55 nM. Moreover, the half-maximal inhibitory concentration (IC50) in data set [2] (setting [6]) was determined as 102 nM. Moreover, the IC50 in data set [3] (setting [7]) turned out to be 105 nM. Further, in data set [4] (setting [8]), the IC50 was 84 nM.

`C=C1C(=O)N(c2cc(OC)c(OC)c(OC)c2)[C@H]1c1ccc(OC)c(OC(=O)c2ccc(F)cc2)c1` [Compound 20, (S)-2-methoxy-5-(3-methylene-4-oxo-1-(3,4,5-trimethoxyphenyl)azetidin-2-yl)phenyl 4-fluorobenzoate]: the melting point was 185 to 186 °C. Also, in data set [1] (Homo sapiens, A2780, 48 h), the IC50 turned out to be 169 nM. In addition, the IC50 in data set [2] (Homo sapiens, HeLa) stood at 75 nM. In addition, in data set [3] (Homo sapiens, MDA-MB-231, 48 h), the 50% inhibitory concentration (IC50) was determined as 223 nM. The concentration for half-maximal inhibition (IC50) in data set [4] (Homo sapiens, SK-OV-3, 48 h) was 114 nM.

`C=C1C(=O)N(c2cc(OC)c(OC)c(OC)c2)[C@H]1c1ccc(OC)c(OC(=O)c2cccnc2)c1` [Compound 22, (S)-2-methoxy-5-(3-methylene-4-oxo-1-(3,4,5-trimethoxyphenyl)azetidin-2-yl)phenyl nicotinate] gave a melting point of 113 to 114 °C. Further, in data set [1] (setting [5]), the IC50 turned out to be 112 nM. In data set [2] (setting [6]), the half-maximal inhibitory concentration (IC50) was 115 nM. In addition, in data set [3] (setting [7]), the IC50 amounted to 151 nM. Also, the concentration for half-maximal inhibition (IC50) in data set [4] (setting [8]) was determined as 75 nM.

`C=C1C(=O)N(c2cc(OC)c(OC)c(OC)c2)[C@H]1c1ccc(OC)c(OC(=O)C2CC2)c1` [Compound 23, (S)-2-methoxy-5-(3-methylene-4-oxo-1-(3,4,5-trimethoxyphenyl)azetidin-2-yl)phenyl cyclopropanecarboxylate] gave a melting point of 68 to 69 °C. Moreover, in data set [1] (Homo sapiens, A2780, 48 h), the IC50 was found to be 129 nM. Also, the half-inhibitory concentration (IC50) in data set [2] (Homo sapiens, HeLa) was 142 nM. The IC50 in data set [3] (Homo sapiens, MDA-MB-231, 48 h) is 207 nM. Moreover, in data set [4] (Homo sapiens, SK-OV-3, 48 h), the concentration for half-maximal inhibition (IC50) came to 108 nM.

Regarding `C=CC(=O)Oc1cc([C@H]2C(=C)C(=O)N2c2cc(OC)c(OC)c(OC)c2)ccc1OC` [Compound 24, (S)-2-methoxy-5-(3-methylene-4-oxo-1-(3,4,5-trimethoxyphenyl)azetidin-2-yl)phenyl acrylate], the melting point lay within 109 to 110 °C. Also, in data set [1] (setting [5]), the IC50 is 328 nM. The half-inhibitory concentration (IC50) in data set [2] (setting [6]) worked out at 490 nM. Moreover, in data set [3] (setting [7]), the 50% inhibitory concentration (IC50) was found to be 565 nM. Also, in data set [4] (setting [8]), the 50% inhibitory concentration (IC50) is 522 nM.

Regarding `COc1ccc([C@H]2[C@@H](C)C(=O)N2c2cc(OC)c(OC)c(OC)c2)cc1OS(=O)(=O)F` [Compound 108, 2-methoxy-5-((2R,3R)-3-methyl-4-oxo-1-(3,4,5-trimethoxyphenyl)azetidin-2-yl)phenyl sulfofluoridate], the IC50 in data set [1] (setting [5]) is 35 nM; in data set [2] (setting [6]) it was 54 nM; in data set [3] (setting [7]), 40 nM; in data set [4] (setting [8]), 62 nM.

For the molecule `COc1ccc([C@H]2[C@H](C)C(=O)N2c2cc(OC)c(OC)c(OC)c2)cc1OS(=O)(=O)F` [Compound 109, 2-methoxy-5-((2R,3S)-3-methyl-4-oxo-1-(3,4,5-trimethoxyphenyl)azetidin-2-yl)phenyl sulfofluoridate], the IC50 turned out to be 21 nM in data set [1] (setting [5]), 51 nM in data set [2] (setting [6]), 23 nM in data set [3] (setting [7]) and 34 nM in data set [4] (setting [8]).
